# Assay results published in PMC11505911, “Design and Synthesis of Small Molecule Probes of MDA-9/Syntenin” (Biomolecules, 2024).
# “And” between values parts separate entries of the source, which are not always exact repeats. Identical values can stand only once. Like-named read-outs stand apart in the source and are kept apart here.
# Legend:
# [1] = target: T1, MDA-9/Syntenin (Homo sapiens, UniProt O00560); design: method as in printed; conditions: pre-PDZ1i molecules studied en route to the discovery of PDZ1i; ref not given; cited from earlier work
# T1 construct: made in house
# T1 sequence (O00560 1-298): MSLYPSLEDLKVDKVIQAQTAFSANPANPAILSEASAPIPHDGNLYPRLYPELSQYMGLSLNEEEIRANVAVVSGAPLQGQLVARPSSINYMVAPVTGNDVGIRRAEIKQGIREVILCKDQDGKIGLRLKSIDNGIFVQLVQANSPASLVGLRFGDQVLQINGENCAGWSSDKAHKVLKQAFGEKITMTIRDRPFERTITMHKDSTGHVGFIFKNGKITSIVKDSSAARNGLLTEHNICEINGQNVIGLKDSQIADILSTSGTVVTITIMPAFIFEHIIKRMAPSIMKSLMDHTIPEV
# [2] = target: T1, MDA-9/Syntenin; test: Fluorescence polarization titration of ligands into MDA-9/Syntenin; type: binding; conditions: 20 mM Tris-HCl, 100 mM NaCl, 0.01% PEG800, 0.05% Tween20, pH 7.4; single-site fit; minimum of two titrations
# Method: Spectrofluorimetric titrations were performed on a Horiba QM400 spectrometer (HORIBA Scientific, Piscataway, NJ, USA). Excitation and emission wavelengths of 280 nm and 340 nm (600 nm for the reference emission wavelength) were used, with 5 nm excitation and 12 nm emission band widths, as described earlier. Experiments were performed in ratiometric mode, with excitation and emission polarizers set to 0,0 angles at room temperature. The titration buffer was 20 mM Tris-HCl buffer, pH 7.4. The stock concentrations of protein and ligands were 40 and 300–1000 μM, respectively. Whereas the protein was prepared in the titration buffer, the ligands were prepared in DMSO. The ligands (either URD001, NGI03, or NVS125) were titrated into the protein solution in aliquots, and saturable changes in fluorescence polarization were used to calculate the affinity. […] The emission intensities were corrected for dilution effects (<10% overall). The observed change in fluorescence polarization relative to initial signal (F0) was fitted using a standard single-site binding model to obtain the dissociation constant (KD) and the maximal change in fluorescence polarization (ΔF) at saturation.
# We then explored fluorescence polarization (λEX = 280 nm, λEM = 340 nm; λREF = 600 nm) in 20 mM Tris-HCl containing 100 mM NaCl, 0.01% PEG800, and 0.05% Tween20, pH 7.4. Polarization relies on the change in molecular diffusion of the protein in the presence of a ligand as a probe of interaction. This technique worked well for PDZ1i, which presented a classic hyperbolic binding profile. […] For NGI03 and URD001, KDs of 1.1 and 3.0 μM, respectively, were measured. […] This implies that no reliable fit of the data could be obtained. Yet, based on the profile, the KD is likely to be more than 200 μM.
# [3] = Aqueous solubility (qualitative); type: physicochemical; conditions: authors' observation
# [4] = target: T1, MDA-9/Syntenin; conditions: cited from earlier work
# [5] = design: method as in printed; conditions: stated in introduction; ref not given; cited from earlier work
Compound,IC50 [1] [µM],other results
Cc1cc(=O)n2nc(COc3ccccc3)nc2[nH]1 [30A9],197,
Cc1cc(=O)n2nc(C(=O)Nc3ccc(O)cc3)nc2[nH]1 [112D11],245,
Cc1cc(=O)n2nc(C(=O)Nc3ccc(N)cc3)nc2[nH]1 [112E7],944,
O=C(Nc1ccc(O)cc1)c1nc2[nH]c3c(c(=O)n2n1)CCC3 [112E12],1610,
O=C(Nc1ccc(O)c(F)c1)c1nc2[nH]c3c(c(=O)n2n1)CCC3 [112F12],166,
Cc1cc(=O)n2nc(C(=O)Nc3cc(Cl)c(O)c(Cl)c3)nc2[nH]1 [112G1],57.3,
Cc1cc(=O)n2nc(C(=O)Nc3ccc(O)c(F)c3)nc2[nH]1 [112G2],147,
O=C(Nc1ccc(O)c(Cl)c1)c1nc2[nH]c3c(c(=O)n2n1)CCC3 [112G3],119,
Cc1cc(=O)n2nc(C(=O)Nc3cc(Cl)c(N)c(Cl)c3)nc2[nH]1 [112G4],34.3,
Nc1ccc(NC(=O)c2nc3[nH]c4c(c(=O)n3n2)CCC4)cc1 [112G11],263,
Cc1c(C)c(NC(=O)c2nc3[nH]c4c(c(=O)n3n2)CCC4)c(C)c(C)c1N [113B8],151,
Cc1cc(NC(=O)OC(C)(C)C)c(C)cc1CCCC(c1nnc(-c2ccccc2)o1)c1nnc(-c2ccccc2)o1 [CMPD10],151,
"Cc1cc(NC(=O)c2nc3[nH]c4c(c(=O)n3n2)CCC4)c(C)cc1NC(=O)CC(c1nnc(-c2ccccc2)o1)c1nnc(-c2ccccc2)o1 [NGI03, N-(4-(3,3-bis(5-phenyl-1,3,4-oxadiazol-2-yl)propanamido)-2,5-dimethylphenyl)-8-oxo-5,6,7,8-tetrahydro-4H-cyclopenta[d][1,2,4]triazolo[1,5-a]pyrimidine-2-carboxamide]",,Kd [2]: 1.1 µM; aqueous solubility [3]: aqueous solubility issues
Cc1ccc(-c2nnc(CCC(=O)Cc3cc(C)c(C(=O)O)cc3C)o2)cc1 [NVS125],,Kd [2]: > 200 µM; aqueous solubility [3]: good aqueous solubility
Cc1cc(NC(=O)c2nc3[nH]c4c(c(=O)n3n2)CCC4)c(C)cc1NC(=O)CCc1nnc(-c2ccccc2)o1 [PDZ1i],,Kd [2]: 78 µM and ~78 µM; Kd ([4]; binding domain PDZ1): 60 to 70 µM; aqueous solubility [5]: poor aqueous solubility
"Cc1cc(NC(=O)c2nc3[nH]c4c(c(=O)n3n2)CCC4)c(C)cc1CCCC(c1nnc(-c2ccccc2)o1)c1nnc(-c2ccccc2)o1 [URD001, N-(4-(4,4-bis(5-phenyl-1,3,4-oxadiazol-2-yl)butyl)-2,5-dimethylphenyl)-8-oxo-5,6,7,8-tetrahydro-4H-cyclopenta[d][1,2,4]triazolo [1,5-a]pyrimidine-2-carboxamide]",,Kd [2]: 3 µM; aqueous solubility [3]: aqueous solubility issues
Ephrin hexapeptide: hexapeptide epitope from ephrin B binding the PDZ2 domain (NIYYKV; Paralogue and species inferred; terminal caps unknown),,Kd ([4]; binding domain PDZ2): 790 µM
IVMT-Rx-3: polyethylene glycol conjugation from truncated PDZ1i with a PDZ2-binding hexapeptide (TNEYYF),,"Kd ([4]; binding domain PDZ1, PDZ2): 63 µM"
Neurexin hexapeptide: hexapeptide epitope from neurexin binding the PDZ2 domain (TNEYYV),,Kd ([4]; binding domain PDZ2): 100 µM
